≈ marks a conversion by molar mass, not a printed value.
How the values were obtained:
Assay type in all cases: functional
[1] = test system: Mycobacterium tuberculosis; test: Antibacterial activity against Mycobacterium tuberculosis H37Rv.
[2] = test system: Mycobacterium intracellulare; test: Antibacterial activity against Mycobacterium intracellular.
Mycobacterium kansasii = test: Antibacterial activity against Mycobacterium kansasii

Row | SMILES | MIC [1] | MIC [2] | MIC (Mycobacterium kansasii)
1 | O=C(NCCO)c1ccccc1SSc1ccccc1C(=O)NCCO | 6.25 µg/mL (≈ 15.9 µM) | 25 µg/mL (≈ 63.7 µM) | 25 µg/mL (≈ 63.7 µM)
2 | CCCCCCC(=O)OCCCNC(=O)c1ccccc1SSc1ccccc1C(=O)NCCCOC(=O)CCCCCC | 0.78 µg/mL (≈ 1.21 µM) | 12.5 µg/mL (≈ 19.4 µM) | 0.39 µg/mL (≈ 0.605 µM)
3 | CC(O)Cn1sc2ccccc2c1=O (stereo not given) | 12.5 µg/mL (≈ 59.7 µM) | 12.5 µg/mL (≈ 59.7 µM) | 25 µg/mL (≈ 119 µM)
4 | O=C(NCC(O)c1ccccc1)c1ccccc1SSc1ccccc1C(=O)NCC(O)c1ccccc1 (stereo not given) | 100 µg/mL (≈ 184 µM) | > 100 µg/mL | 100 µg/mL (≈ 184 µM)
5 | O=C(Nc1cccc(C(F)(F)F)c1)c1ccccc1SSc1ccccc1C(=O)Nc1cccc(C(F)(F)F)c1 | 12.5 µg/mL (≈ 21.1 µM) | 25 µg/mL (≈ 42.2 µM) | 25 µg/mL (≈ 42.2 µM)
6 | CCCCC(CC)CNC(=O)c1ccccc1SSc1ccccc1C(=O)NCC(CC)CCCC (stereo not given) | 1.56 µg/mL (≈ 2.95 µM) | 50 µg/mL (≈ 94.5 µM) | 3.13 µg/mL (≈ 5.92 µM)
7 | O=C(O)Cc1ccc(NC(=O)c2ccccc2SSc2ccccc2C(=O)Nc2ccc(CC(=O)O)cc2)cc1 | 100 µg/mL (≈ 175 µM) | 100 µg/mL (≈ 175 µM) | 100 µg/mL (≈ 175 µM)
8 | Cl.Cl.O=C(NCC1CCNCC1)c1ccccc1SSc1ccccc1C(=O)NCC1CCNCC1 | 100 µg/mL | > 100 µg/mL | > 100 µg/mL
9 | CCOC(CN1CCN(C(=O)c2ccccc2SSc2ccccc2C(=O)N2CCN(CC(OCC)c3ccccc3)CC2)CC1)c1ccccc1 (stereo not given) | > 100 µg/mL | > 100 µg/mL | > 100 µg/mL
10 | CCCCCCCCCCCC(=O)OCCNC(=O)c1ccccc1SSc1ccccc1C(=O)NCCOC(=O)CCCCCCCCCCC | 6.25 µg/mL (≈ 8.26 µM) | 100 µg/mL (≈ 132 µM) | 25 µg/mL (≈ 33 µM)
11 | O=C(NC1CCC(O)CC1)c1ccccc1SSc1ccccc1C(=O)NC1CCC(O)CC1 (stereo not given) | 12.5 µg/mL (≈ 25 µM) | 25 µg/mL (≈ 49.9 µM) | 25 µg/mL (≈ 49.9 µM)
12 | Cl.Cl.O=C(c1ccccc1SSc1ccccc1C(=O)N1CCN(Cc2ccccc2)CC1)N1CCN(Cc2ccccc2)CC1 | 25 µg/mL | > 100 µg/mL | 50 µg/mL
13 | CCOC(=O)CNC(=O)c1ccccc1SSc1ccccc1C(=O)NCC(=O)OCC | 25 µg/mL (≈ 52.5 µM) | 25 µg/mL (≈ 52.5 µM) | 25 µg/mL (≈ 52.5 µM)
14 | CCOC(=O)c1ccc(NC(=O)c2ccccc2SSc2ccccc2C(=O)Nc2ccc(C(=O)OCC)cc2)cc1 | 3.13 µg/mL (≈ 5.21 µM) | 25 µg/mL (≈ 41.6 µM) | 25 µg/mL (≈ 41.6 µM)
15 | O=C(Nc1c([N+](=O)[O-])ccc2ccccc12)c1ccccc1SSc1ccccc1C(=O)Nc1c([N+](=O)[O-])ccc2ccccc12 | 50 µg/mL (≈ 77.3 µM) | > 100 µg/mL | 50 µg/mL (≈ 77.3 µM)
16 | CN1CCN(C(=O)c2ccccc2SSc2ccccc2C(=O)N2CCN(C)CC2)CC1.Cl.Cl | 100 µg/mL | > 100 µg/mL | > 100 µg/mL
17 | O=C(Nc1ccc(Br)c2ccccc12)c1ccccc1SSc1ccccc1C(=O)Nc1ccc(Br)c2ccccc12 | 12.5 µg/mL (≈ 17.5 µM) | > 100 µg/mL | 50 µg/mL (≈ 70 µM)
18 | CCC(CO)NC(=O)c1ccccc1SSc1ccccc1C(=O)NC(CC)CO (stereo not given) | 12.5 µg/mL (≈ 27.9 µM) | 25 µg/mL (≈ 55.7 µM) | 25 µg/mL (≈ 55.7 µM)
19 | CCCCCCCCCCCC(=O)OC(C)CNC(=O)c1ccccc1SSc1ccccc1C(=O)NCC(C)OC(=O)CCCCCCCCCCC (stereo not given) | 3.13 µg/mL (≈ 3.99 µM) | 100 µg/mL (≈ 127 µM) | 50 µg/mL (≈ 63.7 µM)
20 | O=C(NC1CCCCC1)c1ccccc1SSc1ccccc1C(=O)NC1CCCCC1 | 12.5 µg/mL (≈ 26.7 µM) | > 100 µg/mL | 100 µg/mL (≈ 213 µM)
21 | COCCNC(=O)c1ccccc1SSc1ccccc1C(=O)NCCOC | 6.25 µg/mL (≈ 14.9 µM) | 12.5 µg/mL (≈ 29.7 µM) | 12.5 µg/mL (≈ 29.7 µM)
22 | O=C(Nc1ccc(S(=O)(=O)Nc2nc3ccccc3s2)cc1)c1ccccc1SSc1ccccc1C(=O)Nc1ccc(S(=O)(=O)Nc2nc3ccccc3s2)cc1 | 100 µg/mL (≈ 113 µM) | 100 µg/mL (≈ 113 µM) | 50 µg/mL (≈ 56.7 µM)
23 | CC(CCc1ccccc1)NC(=O)c1ccccc1SSc1ccccc1C(=O)NC(C)CCc1ccccc1 (stereo not given) | 100 µg/mL (≈ 176 µM) | > 100 µg/mL | > 100 µg/mL

Row | SMILES | MIC [1] | MIC [2] | MIC (Mycobacterium kansasii)
24 | O=C(Nc1cccc2ccc(O)cc12)c1ccccc1SSc1ccccc1C(=O)Nc1cccc2ccc(O)cc12 | 50 µg/mL (≈ 84.9 µM) | 50 µg/mL (≈ 84.9 µM) | 50 µg/mL (≈ 84.9 µM)
25 | O=c1c2ccccc2sn1CCO | 12.5 µg/mL (≈ 64 µM) | 12.5 µg/mL (≈ 64 µM) | 25 µg/mL (≈ 128 µM)
26 | O=C(NCCCCO)c1ccccc1SSc1ccccc1C(=O)NCCCCO | 6.25 µg/mL (≈ 13.9 µM) | 25 µg/mL (≈ 55.7 µM) | 25 µg/mL (≈ 55.7 µM)
27 | CC[C@@H](CO)NCCN[C@@H](CC)CO [ETHAMBUTOL] | 0.78 µg/mL (≈ 3.82 µM) | 12.5 µg/mL (≈ 61.2 µM) | 12.5 µg/mL (≈ 61.2 µM)
28 | O=C(NCO)c1ccccc1SSc1ccccc1C(=O)NCO | 6.25 µg/mL (≈ 17.1 µM) | 25 µg/mL (≈ 68.6 µM) | 25 µg/mL (≈ 68.6 µM)
29 | O=C(NCc1cccc2ccccc12)c1ccccc1SSc1ccccc1C(=O)NCc1cccc2ccccc12 | > 100 µg/mL | > 100 µg/mL | > 100 µg/mL
30 | O=C(c1ccccc1SSc1ccccc1C(=O)N1CCN(c2ccccc2)CC1)N1CCN(c2ccccc2)CC1 | 12.5 µg/mL (≈ 21 µM) | 25 µg/mL (≈ 42 µM) | 50 µg/mL (≈ 84.1 µM)
31 | CN[C@@H]1[C@H](O[C@H]2[C@H](O[C@H]3[C@H](O)[C@@H](O)[C@H](N=C(N)N)[C@@H](O)[C@@H]3N=C(N)N)O[C@@H](C)[C@]2(O)C=O)O[C@@H](CO)[C@H](O[C@@H]2O[C@H](CO)[C@@H](O)[C@H](O)[C@@H]2O)[C@H]1O | 0.78 µg/mL (≈ 1.05 µM) | 12.5 µg/mL (≈ 16.8 µM) | 3.13 µg/mL (≈ 4.21 µM)
32 | CCc1cc(CC)cc(NC(=O)c2ccccc2SSc2ccccc2C(=O)Nc2cc(CC)cc(CC)c2)c1 | > 100 µg/mL | > 100 µg/mL | > 100 µg/mL
33 | CCn1c2ccccc2c2cc(NC(=O)c3ccccc3SSc3ccccc3C(=O)Nc3ccc4c(c3)c3ccccc3n4CC)ccc21 | 3.13 µg/mL (≈ 4.53 µM) | > 100 µg/mL | 50 µg/mL (≈ 72.4 µM)
34 | O=C(c1ccccc1SSc1ccccc1C(=O)N1C(=O)c2ccccc2C1=O)N1C(=O)c2ccccc2C1=O | > 100 µg/mL | > 100 µg/mL | > 100 µg/mL
35 | O=C(NCc1ccco1)c1ccccc1SSc1ccccc1C(=O)NCc1ccco1 | 25 µg/mL (≈ 53.8 µM) | 25 µg/mL (≈ 53.8 µM) | 25 µg/mL (≈ 53.8 µM)
36 | O=C(NCCNCCO)c1ccccc1SSc1ccccc1C(=O)NCCNCCO | 25 µg/mL (≈ 52.2 µM) | > 100 µg/mL | > 100 µg/mL
37 | CCC(CO)(CO)NC(=O)c1ccccc1SSc1ccccc1C(=O)NC(CC)(CO)CO | 25 µg/mL (≈ 49.1 µM) | 100 µg/mL (≈ 197 µM) | 25 µg/mL (≈ 49.1 µM)
38 | O=C(Nc1cccc([N+](=O)[O-])c1)c1ccccc1SSc1ccccc1C(=O)Nc1cccc([N+](=O)[O-])c1 | 100 µg/mL (≈ 183 µM) | > 100 µg/mL | > 100 µg/mL
39 | O=C(c1ccccc1SSc1ccccc1C(=O)N1CCOCC1)N1CCOCC1 | 12.5 µg/mL (≈ 28.1 µM) | > 100 µg/mL | > 100 µg/mL
40 | CC(C)(CO)NC(=O)c1ccccc1SSc1ccccc1C(=O)NC(C)(C)CO | 12.5 µg/mL (≈ 27.9 µM) | 12.5 µg/mL (≈ 27.9 µM) | 12.5 µg/mL (≈ 27.9 µM)
41 | O=C(Nc1cc2ccccc2cc1O)c1ccccc1SSc1ccccc1C(=O)Nc1cc2ccccc2cc1O | 12.5 µg/mL (≈ 21.2 µM) | 50 µg/mL (≈ 84.9 µM) | 25 µg/mL (≈ 42.5 µM)
42 | O=C(Nc1ccc2ccccc2c1)c1ccccc1SSc1ccccc1C(=O)Nc1ccc2ccccc2c1 | 1.56 µg/mL (≈ 2.8 µM) | 6.25 µg/mL (≈ 11.2 µM) | 6.25 µg/mL (≈ 11.2 µM)
43 | CCCCCCCCCCCCCCCC(=O)OCCCNC(=O)c1ccccc1SSc1ccccc1C(=O)NCCCOC(=O)CCCCCCCCCCCCCCC | 50 µg/mL (≈ 55.7 µM) | > 100 µg/mL | 100 µg/mL (≈ 111 µM)
44 | O=C(Nc1cccc2cccnc12)c1ccccc1SSc1ccccc1C(=O)Nc1cccc2cccnc12 | 25 µg/mL (≈ 44.7 µM) | > 100 µg/mL | 100 µg/mL (≈ 179 µM)
45 | O=C(NCCO)c1ccc(Cl)cc1SSc1ccc(Cl)cc1C(=O)NCCO | 6.25 µg/mL (≈ 13.5 µM) | 50 µg/mL (≈ 108 µM) | 25 µg/mL (≈ 54.2 µM)

Source: ChEMBL document CHEMBL1122862, “Synthesis and antibacterial activity of 2,2'-dithiobis(benzamide) derivatives against Mycobacterium species” (1985)
